Values of other authors in US9066965B1, “Purified limonin glucoside for prevention and treatment of chronic diseases” (The United States of America, as represented by the …, priority 2012, dated 2015).

Tests used:
[1] = purified flavonoids, hypercholesterolemic men and women; cited from earlier work
Hep G2 cell line = conditions: cited from earlier work
TGRS = target: T1, TGRS (Homo sapiens, UniProt Q8TDU6); conditions: cited from earlier work
T1 sequence (Q8TDU6 1-330): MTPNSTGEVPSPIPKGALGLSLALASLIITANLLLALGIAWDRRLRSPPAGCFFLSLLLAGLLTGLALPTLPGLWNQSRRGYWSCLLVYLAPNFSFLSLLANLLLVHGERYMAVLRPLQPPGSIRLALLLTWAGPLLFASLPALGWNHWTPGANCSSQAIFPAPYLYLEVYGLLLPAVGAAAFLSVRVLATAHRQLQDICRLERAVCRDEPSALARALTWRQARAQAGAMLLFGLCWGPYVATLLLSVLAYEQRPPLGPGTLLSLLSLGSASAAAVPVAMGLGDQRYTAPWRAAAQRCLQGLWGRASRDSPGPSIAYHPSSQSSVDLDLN

[2] = 0.2% in diet, mice fed high fat diets; cited from earlier work

SMILES	effect on serum total- and LDL cholesterol [1]	Apo B secretion (Hep G2 cell line)	activation of TGRS (TGRS)	high fat diet induced obesity and hyperglycemia [2]
COc1ccc([C@@H]2CC(=O)c3c(O)cc(O[C@@H]4O[C@H](CO[C@@H]5O[C@@H](C)[C@H](O)[C@@H](O)[C@H]5O)[C@@H](O)[C@H](O)[C@H]4O)cc3O2)cc1O [hesperidin]	did not alter			
CC1(C)O[C@H]2CC(=O)OC[C@]23[C@H]2CC[C@@]4(C)[C@H](c5ccoc5)OC(=O)[C@H]5O[C@]54[C@]2(C)C(=O)C[C@@H]13 [limonin]		significantly decreased	did not activate	
CC(=O)O[C@H]1CC(=O)OC(C)(C)[C@@H]2CC(=O)[C@]3(C)[C@H](CC[C@@]4(C)[C@H](c5ccoc5)OC(=O)[C@H]5O[C@]543)[C@@]12C [nomilin]			activating	prevented
C[C@@H]1O[C@@H](O[C@H]2[C@H](Oc3cc(O)c4c(c3)O[C@H](c3ccc(O)cc3)CC4=O)O[C@H](CO)[C@@H](O)[C@@H]2O)[C@H](O)[C@H](O)[C@H]1O [naringin]	did not alter			
